Measured values published in US10377753B2, “Substituted 4-azaindoles and their use as GluN2B receptor modulators” (Janssen Pharmaceutica NV, priority 2015, dated 2019).
Structures can show the parent of a compound that is named as a salt.

These compounds were tested against cloned human NR1/NR2B ion channels (Homo sapiens (Human), UniProt Q05586+Q13224) (assay: HNR2BC: effects of test articles on cloned human NR1/NR2B ion channels expressed in mammalian cells (FLIPR calcium flux)). Conditions: cloned human NR1/NR2B, Table 5.
Type: cell-based
Method in brief: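 Compounds were added to dye-loaded cells for 5 min with fluorescence monitored for agonism, followed by co-agonists (glutamate ~EC80, glycine 10 μM saturating) for 5 min. Cells stably expressed inducible human NR1/NR2B, and the buffer was pH 7.4. The FLIPR Ca2+ flux signal was normalized against control wells.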

Sequence of cloned human NR1/NR2B ion channels (Q13224 27-1484, other chains not shown): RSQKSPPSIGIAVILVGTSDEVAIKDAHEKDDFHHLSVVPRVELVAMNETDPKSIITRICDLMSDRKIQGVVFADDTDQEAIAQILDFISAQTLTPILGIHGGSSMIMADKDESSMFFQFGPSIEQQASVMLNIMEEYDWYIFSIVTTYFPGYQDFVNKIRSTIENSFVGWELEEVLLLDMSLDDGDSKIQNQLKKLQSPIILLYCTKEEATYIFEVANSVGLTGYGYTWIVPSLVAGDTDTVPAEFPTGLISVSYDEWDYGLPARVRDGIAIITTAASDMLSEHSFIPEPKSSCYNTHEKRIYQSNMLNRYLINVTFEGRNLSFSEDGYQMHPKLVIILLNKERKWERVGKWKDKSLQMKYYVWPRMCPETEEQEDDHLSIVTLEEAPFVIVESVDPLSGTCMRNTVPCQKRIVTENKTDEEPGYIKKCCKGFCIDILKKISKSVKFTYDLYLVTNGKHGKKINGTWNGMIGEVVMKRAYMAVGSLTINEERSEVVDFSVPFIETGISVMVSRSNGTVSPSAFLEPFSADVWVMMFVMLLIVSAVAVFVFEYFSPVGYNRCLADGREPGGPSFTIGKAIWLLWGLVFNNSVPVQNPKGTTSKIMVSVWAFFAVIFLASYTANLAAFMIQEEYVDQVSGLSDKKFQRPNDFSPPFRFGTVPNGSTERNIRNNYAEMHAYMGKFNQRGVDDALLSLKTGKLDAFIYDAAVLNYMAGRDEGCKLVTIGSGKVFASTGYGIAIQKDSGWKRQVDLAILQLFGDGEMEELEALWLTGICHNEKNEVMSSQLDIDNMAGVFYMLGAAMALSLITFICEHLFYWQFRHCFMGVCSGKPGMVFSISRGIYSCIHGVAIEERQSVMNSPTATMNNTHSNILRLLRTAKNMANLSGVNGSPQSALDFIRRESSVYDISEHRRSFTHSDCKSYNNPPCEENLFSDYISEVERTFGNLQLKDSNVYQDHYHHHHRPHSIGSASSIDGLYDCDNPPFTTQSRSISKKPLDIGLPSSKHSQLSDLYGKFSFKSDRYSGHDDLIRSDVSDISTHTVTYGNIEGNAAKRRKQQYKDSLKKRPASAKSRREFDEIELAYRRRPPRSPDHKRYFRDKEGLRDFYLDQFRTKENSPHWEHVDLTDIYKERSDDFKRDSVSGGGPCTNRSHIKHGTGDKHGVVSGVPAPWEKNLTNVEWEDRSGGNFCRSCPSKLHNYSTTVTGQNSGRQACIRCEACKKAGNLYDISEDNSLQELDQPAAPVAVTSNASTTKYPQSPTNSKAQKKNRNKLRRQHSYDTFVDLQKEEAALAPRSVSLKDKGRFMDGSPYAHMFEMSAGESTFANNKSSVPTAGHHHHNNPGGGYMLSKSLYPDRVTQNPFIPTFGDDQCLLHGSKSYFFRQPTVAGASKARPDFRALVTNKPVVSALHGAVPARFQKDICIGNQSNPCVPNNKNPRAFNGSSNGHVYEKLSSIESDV

Compound | IC50
Cc1cccc(-c2cnc3ccn(CC(=O)C(C)C)c3c2)c1C [Example 225, 1-[6-(2,3-Dimethylphenyl)pyrrolo[3,2-b]pyridin-1-yl]-3-methyl-butan-2-one] | 79.4 nM
O=C(Cn1ccc2ncc(-c3ccc(F)cc3)cc21)c1ccccc1 [Example 226, 2-[6-(4-Fluorophenyl)pyrrolo[3,2-b]pyridin-1-yl]-1-phenyl-ethanone] | 200 nM
O=C(Cn1ccc2ncc(-c3ccc(F)cc3)cc21)c1ccc(F)cc1 [Example 227, 1-(4-Fluorophenyl)-2-[6-(4-fluorophenyl)pyrrolo[3,2-b]pyridin-1-yl]ethanone] | 794 nM
CC(C)NC(=O)Cn1ccc2ncc(-c3ccc(F)cc3)cc21 [Example 229, 2-[6-(4-Fluorophenyl)pyrrolo[3,2-b]pyridin-1-yl]-N-isopropyl-acetamide] | 501 nM
CCCNC(=O)Cn1ccc2ncc(-c3ccc(F)cc3)cc21 [Example 230, 2-[6-(4-Fluorophenyl)pyrrolo[3,2-b]pyridin-1-yl]-N-propyl-acetamide] | 5010 nM
CC1(NC(=O)Cn2ccc3ncc(-c4ccc(F)cc4)cc32)CC1 [Example 232, 2-[6-(4-Fluorophenyl)pyrrolo[3,2-b]pyridin-1-yl]-N-(1-methylcyclopropyl)acetamide] | 10000 nM
O=C(Cn1ccc2ncc(-c3ccc(F)cc3)cc21)NCCF [Example 233, N-(2-Fluoroethyl)-2-[6-(4-fluorophenyl)pyrrolo[3,2-b]pyridin-1-yl]acetamide] | 15800 nM
CC(C)CNC(=O)Cn1ccc2ncc(-c3ccc(F)cc3)cc21 [Example 234, 2-[6-(4-Fluorophenyl)pyrrolo[3,2-b]pyridin-1-yl]-N-isobutyl-acetamide] | 2510 nM
Cc1cc(-c2cnc3ccn(Cc4cnn(C)c4)c3c2)ccc1F [Example 236, 6-(4-Fluoro-3-methyl-phenyl)-1-[(1-methylpyrazol-4-yl)methyl]pyrrolo[3,2-b]pyridine] | 200 nM
O=C(Cn1ccc2ncc(-c3ccc(F)cc3)cc21)NCC1CC1 [Example 237, N-(Cyclopropylmethyl)-2-[6-(4-fluorophenyl)pyrrolo[3,2-b]pyridin-1-yl]acetamide] | 2000 nM
Cc1cc(-c2cnc3ccn(Cc4cn(C)nn4)c3c2)ccc1F [Example 238, 6-(4-Fluoro-3-methyl-phenyl)-1-[(1-methyltriazol-4-yl)methyl]pyrrolo[3,2-b]pyridine] | 3160 nM
Cc1noc(Cn2cc(Cl)c3ncc(-c4ccc(F)c(C)c4)cc32)n1 [Example 239, 5-[[3-Chloro-6-(4-fluoro-3-methyl-phenyl)pyrrolo[3,2-b]pyridin-1-yl]methyl]-3-methyl-1,2,4-oxadiazole] | 158 nM
Cc1cc(-c2cnc3c(Cl)cn(Cc4cnn(C)c4)c3c2)ccc1F [Example 240, 3-Chloro-6-(4-fluoro-3-methyl-phenyl)-1-[(1-methylpyrazol-4-yl)methyl]pyrrolo[3,2-b]pyridine] | 501 nM
Cc1cc(-c2cnc3c(Cl)cn(CC(=O)C4CCC4)c3c2)ccc1F [Example 241, 2-[3-Chloro-6-(4-fluoro-3-methyl-phenyl)pyrrolo[3,2-b]pyridin-1-yl]-1-cyclobutyl-ethanone] | 5010 nM
Cc1cc(-c2cnc3ccn(CC(=O)C4CCC4)c3c2)ccc1F [Example 242, 1-Cyclobutyl-2-[6-(4-fluoro-3-methyl-phenyl)pyrrolo[3,2-b]pyridin-1-yl]ethanone] | 794 nM
O=C(Cn1cc(Cl)c2ncc(-c3cncc(C(F)(F)F)c3)cc21)N1CCC1 [Example 243, 1-(Azetidin-1-yl)-2-[3-chloro-6-[5-(trifluoromethyl)-3-pyridyl]pyrrolo[3,2-b]pyridin-1-yl]ethanone trifluoroacetate salt] | 100 nM
O=C(Cn1cc(Cl)c2ncc(-c3cncc(C(F)(F)F)c3)cc21)NC1CC1 [Example 244, 2-[3-Chloro-6-[5-(trifluoromethyl)-3-pyridyl]pyrrolo[3,2-b]pyridin-1-yl]-N-cyclopropyl-acetamide trifluoroacetate salt] | 631 nM
O=C(Cn1cc(Cl)c2ncc(-c3cccc(C(F)(F)F)n3)cc21)N1CCC1 [Example 245, 1-(Azetidin-1-yl)-2-[3-chloro-6-[6-(trifluoromethyl)-2-pyridyl]pyrrolo[3,2-b]pyridin-1-yl]ethanone] | 398 nM
O=C(Cn1cc(Cl)c2ncc(-c3cccc(C(F)(F)F)n3)cc21)NC1CC1 [Example 246, 2-[3-Chloro-6-[6-(trifluoromethyl)-2-pyridyl]pyrrolo[3,2-b]pyridin-1-yl]-N-cyclopropyl-acetamide] | 100 nM
O=C(Cn1cc(Cl)c2ncc(-c3cccc(C(F)(F)F)n3)cc21)N1CC(F)C1 [Example 247, 2-[3-Chloro-6-[6-(trifluoromethyl)-2-pyridyl]pyrrolo[3,2-b]pyridin-1-yl]-1-(3-fluoroazetidin-1-yl)ethanone] | 316 nM

Compound | IC50
O=C(Cn1ccc2ncc(-c3cc(F)c(F)c(F)c3)cc21)NC1CC1 [Example 248, N-Cyclopropyl-2-[6-(3,4,5-trifluorophenyl)pyrrolo[3,2-b]pyridin-1-yl]acetamide] | 63.1 nM
O=C(Cn1ccc2ncc(-c3ccc(F)c(F)c3F)cc21)NC1CC1 [Example 249, N-Cyclopropyl-2-[6-(2,3,4-trifluorophenyl)pyrrolo[3,2-b]pyridin-1-yl]acetamide] | 79.4 nM
O=C(Cn1ccc2ncc(-c3cccc(C(F)F)c3)cc21)NC1CC1 [Example 250, N-Cyclopropyl-2-[6-[3-(difluoromethyl)phenyl]pyrrolo[3,2-b]pyridin-1-yl]acetamide] | 251 nM
O=C(Cn1ccc2ncc(-c3ccc(F)cc3)cc21)NCc1ccccc1 [Example 251, N-Benzyl-2-[6-(4-fluorophenyl)pyrrolo[3,2-b]pyridin-1-yl]acetamide] | 50.1 nM
O=C(Cn1ccc2ncc(-c3ccc(F)cc3)cc21)NCCO [Example 253, 2-[6-(4-Fluorophenyl)pyrrolo[3,2-b]pyridin-1-yl]-N-(2-hydroxyethyl)acetamide] | 79.4 nM
COCCNC(=O)Cn1ccc2ncc(-c3ccc(F)cc3)cc21 [Example 254, 2-[6-(4-Fluorophenyl)pyrrolo[3,2-b]pyridin-1-yl]-N-(2-methoxyethyl)acetamide] | 1260 nM
O=C(Cn1ccc2ncc(-c3cccc(C(F)(F)F)c3F)cc21)N1CC(F)(F)C1 [Example 255, 1-(3,3-Difluoroazetidin-1-yl)-2-[6-[2-fluoro-3-(trifluoromethyl)phenyl]pyrrolo[3,2-b]pyridin-1-yl]ethanone trifluoroacetate salt] | 3980 nM
O=C(Cn1ccc2ncc(-c3cccc(F)c3)cc21)N1CC(F)(F)C1 [Example 256, 1-(3,3-Difluoroazetidin-1-yl)-2-[6-(3-fluorophenyl)pyrrolo[3,2-b]pyridin-1-yl]ethanone trifluoroacetate salt] | 79.4 nM
O=C(Cn1ccc2ncc(-c3ccccc3)cc21)N1CC(F)(F)C1 [Example 257, 1-(3,3-Difluoroazetidin-1-yl)-2-(6-phenylpyrrolo[3,2-b]pyridin-1-yl)ethanone trifluoroacetate salt] | 126 nM
CCc1cccc(-c2cnc3ccn(CC(=O)N4CC(F)(F)C4)c3c2)c1 [Example 258, 1-(3,3-Difluoroazetidin-1-yl)-2-[6-(3-ethylphenyl)pyrrolo[3,2-b]pyridin-1-yl]ethanone trifluoroacetate salt] | 200 nM
Cc1cc(-c2cnc3ccn(CC(=O)N4CC(F)(F)C4)c3c2)ccc1F [Example 259, 1-(3,3-Difluoroazetidin-1-yl)-2-[6-(4-fluoro-3-methyl-phenyl)pyrrolo[3,2-b]pyridin-1-yl]ethanone trifluoroacetate salt] | 31.6 nM
O=C(Cn1ccc2ncc(-c3cccc(C(F)(F)F)c3)cc21)N1CC(F)(F)C1 [Example 260, 1-(3,3-Difluoroazetidin-1-yl)-2-[6-[3-(trifluoromethyl)phenyl]pyrrolo[3,2-b]pyridin-1-yl]ethanone trifluoroacetate salt] | 39.8 nM
Cc1cc(F)ccc1-c1cnc2ccn(CC(=O)N3CC(F)(F)C3)c2c1 [Example 261, 1-(3,3-Difluoroazetidin-1-yl)-2-[6-(4-fluoro-2-methyl-phenyl)pyrrolo[3,2-b]pyridin-1-yl]ethanone trifluoroacetate salt] | 50.1 nM
O=C(Cn1ccc2ncc(-c3ccc(F)c(C(F)(F)F)c3)cc21)N1CC(F)C1 [Example 262, 1-(3-Fluoroazetidin-1-yl)-2-[6-[4-fluoro-3-(trifluoromethyl)phenyl]pyrrolo[3,2-b]pyridin-1-yl]ethanone trifluoroacetate salt] | 100 nM
O=C(Cn1ccc2ncc(-c3cccc(F)c3)cc21)N1CC(F)C1 [Example 263, 1-(3-Fluoroazetidin-1-yl)-2-[6-(3-fluorophenyl)pyrrolo[3,2-b]pyridin-1-yl]ethanone trifluoroacetate salt] | 158 nM
Cc1cc(F)ccc1-c1cnc2ccn(CC(=O)N3CC(F)C3)c2c1 [Example 264, 1-(3-Fluoroazetidin-1-yl)-2-[6-(4-fluoro-2-methyl-phenyl)pyrrolo[3,2-b]pyridin-1-yl]ethanone trifluoroacetate salt] | 63.1 nM
O=C(Cn1ccc2ncc(-c3cccc(C(F)(F)F)c3)cc21)N1CC(F)C1 [Example 265, 1-(3-Fluoroazetidin-1-yl)-2-[6-[3-(trifluoromethyl)phenyl]pyrrolo[3,2-b]pyridin-1-yl]ethanone trifluoroacetate salt] | 100 nM
Cc1cccc(-c2cnc3ccn(CC(=O)N4CC(F)C4)c3c2)c1 [Example 266, 1-(3-Fluoroazetidin-1-yl)-2-[6-(m-tolyl)pyrrolo[3,2-b]pyridin-1-yl]ethanone trifluoroacetate salt] | 126 nM
O=C(Cn1ccc2ncc(-c3cccc(C(F)(F)F)c3F)cc21)N1CC(F)C1 [Example 267, 1-(3-Fluoroazetidin-1-yl)-2-[6-[2-fluoro-3-(trifluoromethyl)phenyl]pyrrolo[3,2-b]pyridin-1-yl]ethanone trifluoroacetate salt] | 39.8 nM
